For test [1], the target named is T1, human recombinant ETA receptors (Homo sapiens, UniProt P25101).
T1 construct: expressed in transfected cells; host or cells: CHO cells (microsomal membranes)
T1 sequence (P25101 21-427): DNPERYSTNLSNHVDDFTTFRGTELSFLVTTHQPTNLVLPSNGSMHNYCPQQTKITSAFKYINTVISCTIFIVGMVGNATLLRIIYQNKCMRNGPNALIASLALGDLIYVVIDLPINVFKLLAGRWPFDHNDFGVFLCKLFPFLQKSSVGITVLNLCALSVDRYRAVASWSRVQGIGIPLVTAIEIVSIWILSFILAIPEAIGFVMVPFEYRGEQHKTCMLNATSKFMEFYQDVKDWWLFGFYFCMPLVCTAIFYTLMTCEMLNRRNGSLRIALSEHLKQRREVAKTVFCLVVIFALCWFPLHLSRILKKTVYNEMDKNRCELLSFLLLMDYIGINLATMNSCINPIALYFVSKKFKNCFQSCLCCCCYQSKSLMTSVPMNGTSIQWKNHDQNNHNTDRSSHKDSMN
Put plainly: Inhibition of [125I]ET-1 binding to membranes from CHO cells carrying human ETA receptors. The conditions noted are these: CHO cell membranes, 8 pM [125I]ET-1, 2 h at 20° C. How it is done:
(§1) 1) Inhibition of Endothelin Binding to Membranes from CHO Cells Carrying Human ET Receptors
(§2) For competition binding studies, membranes of CHO cells expressing human recombinant ETA or ETB receptors were used. Microsomal membranes from recombinant CHO cells were prepared and the binding assay made as previously described (Breu V., et al, FEBS Lett 1993; 334:210).
(§3) The assay was performed in 200 uL 50 mM Tris/HCl buffer, pH 7.4, including 25 mM MnCl2, 1 mM EDTA and 0.5% (w/v) BSA in polypropylene microtiter plates. […] After 2 h, the membranes were filtered on filterplates containing GF/C filters (Unifilterplates from Canberra Packard S.A. Zürich, Switzerland). To each well, 50 uL of scintillation cocktail was added (MicroScint 20, Canberra Packard S.A. Zürich, Switzerland) and the filter plates counted in a microplate counter (TopCount, Canberra Packard S.A. Zürich, Switzerland).
(§4) All the test compounds were dissolved, diluted and added in DMSO.

The target of test [2] is T2, human recombinant ETB receptors (Homo sapiens, UniProt P24530).
T2 construct: expressed in transfected cells; host or cells: CHO cells (microsomal membranes)
T2 sequence (P24530 27-442): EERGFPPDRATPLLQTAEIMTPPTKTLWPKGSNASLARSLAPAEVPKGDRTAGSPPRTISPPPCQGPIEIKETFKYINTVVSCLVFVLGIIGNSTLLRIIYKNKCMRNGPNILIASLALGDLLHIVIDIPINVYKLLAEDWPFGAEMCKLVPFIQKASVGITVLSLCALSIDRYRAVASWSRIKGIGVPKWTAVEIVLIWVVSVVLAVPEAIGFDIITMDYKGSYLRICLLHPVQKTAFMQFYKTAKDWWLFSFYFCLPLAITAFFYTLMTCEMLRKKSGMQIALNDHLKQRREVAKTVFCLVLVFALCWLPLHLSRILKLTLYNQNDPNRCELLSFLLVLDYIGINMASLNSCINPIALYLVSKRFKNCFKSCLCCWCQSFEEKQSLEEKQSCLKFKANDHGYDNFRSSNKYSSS
The test is described as follows: Inhibition of [125I]ET-1 binding to membranes from CHO cells carrying human ETB receptors. The method, then: as §1, §2, §3, §4

Regarding `COCCOc1nc(NS(=O)(=O)/C=C/c2ccccc2)c(-c2ccccc2)c(OCCOc2ncc(Br)cn2)n1` [Example 113], the IC50 in test [1] is 14.7 nM; in test [2] it was greater than 10000 nM.

`COc1cnc(OCCOc2ncnc(NS(=O)(=O)/C=C/c3ccccc3)c2Oc2cc(OC)ccc2Cl)nc1` [Example 226]: the figures for the IC50 in test [1] and in test [2] were 15.4 nM and 1550 nM, respectively.

`COc1cccc(Oc2c(NS(=O)(=O)/C=C/c3ccccc3)ncnc2OCCOc2ncc(Br)cn2)c1` [Example 230]: the half-maximal inhibitory concentration (IC50) in test [1] is 12.3 nM; in test [2] it was 937 nM.

For `O=S(=O)(/C=C/c1ccccc1)Nc1ncnc(OCCOc2ncc(Cl)cn2)c1-c1ccc(Cl)cc1` [Example 47], the results for the IC50 in test [1] and in test [2] were 7.04 nM and 752 nM, respectively.

As for `O=S(=O)(/C=C/c1ccccc1)Nc1nc(-c2ccncc2)nc(OCCOc2ncc(Br)cn2)c1-c1ccccc1` [Example 109], the 50% inhibitory concentration (IC50) is 39 nM in test [1] and greater than 10000 nM in test [2].

As to `Cc1ccc(-c2c(NS(=O)(=O)/C=C/c3ccccc3)nc(C3CC3)nc2OCCOc2ncc(Br)cn2)cc1` [Example 132], the values for the IC50 in test [1] and in test [2] were 5.7 nM and 1660 nM, respectively.

With `COc1cnc(OCCOc2nc(-c3ccncc3)nc(NS(=O)(=O)/C=C/c3ccsc3)c2Oc2ccccc2OC)nc1` [Example 179], the IC50 in test [1] amounted to 9 nM; in test [2], 699 nM.

On to `COc1cnc(OCCOc2ncnc(NS(=O)(=O)/C=C/c3cccs3)c2-c2ccc(Br)cc2)nc1` [Example 90], for which the results for the IC50 in test [1] and in test [2] were 4.3 nM and 336 nM, respectively.

Turning to `COc1ccc(-c2c(NS(=O)(=O)/C=C/c3ccccc3)ncnc2OCCOc2ncc(Br)cn2)cc1` [Example 118], the IC50 in test [1] was 9.8 nM; in test [2] it was 1010 nM.

Consider `COc1nc(NS(=O)(=O)/C=C/c2ccccc2)c(-c2ccccc2)c(OCCOc2ncc(Br)cn2)n1` [Example 114], for which the IC50 came out at 18.4 nM in test [1] and 3880 nM in test [2].

With `Cc1ccc(-c2c(NS(=O)(=O)/C=C/c3ccccc3)ncnc2OCCOc2ccc(C(F)(F)F)cn2)cc1` [Example 5, 2-Phenyl-ethenesulfonic acid {5-p-tolyl-6-[2-(5-trifluoromethyl-pyridin-2-yloxy)-ethoxy]-pyrimidin-4-yl}-amide], the concentration for half-maximal inhibition (IC50) is 12.8 nM in test [1] and 130 nM in test [2].

Take `Cc1ccc(-c2c(NS(=O)(=O)/C=C/c3cccs3)nc(-c3ncccn3)nc2OCCOc2ncc(C)cn2)cc1` [Example 75]: the IC50 in test [1] was 17.6 nM; in test [2] it was greater than 10000 nM.

On to `Cc1ccc(-c2c(NS(=O)(=O)/C=C/c3ccccc3)ncnc2OCCOc2ccc(Br)cn2)cc1` [Example 11], for which the IC50 amounted to 18.5 nM in test [1] and 264 nM in test [2].

`COc1ccccc1Oc1c(NS(=O)(=O)/C=C/c2ccccc2)ncnc1OCCOc1ncc(SC)cn1` [Example 222]: the IC50 in test [1] came out at 41 nM; in test [2], 506 nM.

As for `O=S(=O)(/C=C/c1ccccc1)Nc1nc(N2CCCCC2)nc(OCCOc2ncc(Br)cn2)c1-c1ccccc1` [Example 116], the results for the IC50 in test [1] and in test [2] were 24.9 nM and greater than 10000 nM, respectively.

Take `Cc1ccc(-c2c(NS(=O)(=O)/C=C/c3ccccc3)ncnc2OCCOc2cnccn2)cc1` [Example 4]: the IC50 stood at 273 nM in test [1] and 8600 nM in test [2].

Regarding `COc1cnc(OCCOc2nc(-c3ccncc3)nc(NS(=O)(=O)/C=C/c3ccccc3)c2Oc2ccccc2OC)nc1` [Example 160], the figures for the IC50 in test [1] and in test [2] were 12.9 nM and 757 nM, respectively.

For the compound `COc1ccccc1Oc1c(NS(=O)(=O)/C=C/c2ccccc2)nc(N2CCOCC2)nc1OCCOc1ncc(SC)cn1` [Example 204], the IC50 in test [1] was determined as 3.3 nM; in test [2] it was 138 nM.

As to `COc1ccccc1Oc1c(NS(=O)(=O)/C(C)=C/c2ccccc2)nc(N2CCOCC2)nc1OCCOc1ncc(Br)cn1` [Example 202], the half-inhibitory concentration (IC50) in test [1] stood at 2.4 nM; in test [2], 349 nM.

For the compound `Cc1cccc(/C=C/S(=O)(=O)Nc2ncnc(OCCOc3ncc(Br)cn3)c2-c2ccc(Cl)cc2)c1` [Example 52], the figures for the half-maximal inhibitory concentration (IC50) in test [1] and in test [2] were 7.5 nM and 1490 nM, respectively.

As for `COc1cccc(Oc2c(NS(=O)(=O)/C=C/c3ccccc3)ncnc2OCCOc2ncc(SC)cn2)c1` [Example 232], the IC50 in test [1] was found to be 10 nM; in test [2] it was 290 nM.

Turning to `COc1cnc(OCCOc2nc(-c3ncccn3)nc(NS(=O)(=O)/C=C/c3cccs3)c2-c2ccc(C)cc2)nc1` [Example 74], the IC50 in test [1] is 7.8 nM; in test [2] it was 3530 nM.

With `Cc1ccc(/C=C/S(=O)(=O)Nc2ncnc(OCCOc3ncc(Cl)cn3)c2-c2ccc(C)cc2)cc1` [Example 24], the IC50 in test [1] was found to be 21.7 nM; in test [2], 657 nM.

For `O=S(=O)(/C=C/c1ccccc1)Nc1ncnc(OCCOc2ccc(C(F)(F)F)cn2)c1-c1ccc(Cl)cc1` [Example 45], the half-maximal inhibitory concentration (IC50) in test [1] is 19.3 nM; in test [2], 332 nM.

Take `Cc1ccc(-c2c(NS(=O)(=O)/C=C/c3cccs3)ncnc2OCCOc2ccc(Br)cn2)cc1` [Example 71]: the 50% inhibitory concentration (IC50) in test [1] stood at 17 nM; in test [2] it was 507 nM.

On to `COc1cnc(OCCOc2nc(N3CCOCC3)nc(NS(=O)(=O)/C(C)=C/c3ccccc3)c2Oc2ccccc2OC)nc1` [Example 203], for which the figures for the concentration for half-maximal inhibition (IC50) in test [1] and in test [2] were 3.4 nM and 249 nM, respectively.

With `COc1ccccc1Oc1c(NS(=O)(=O)/C=C/c2ccccc2)nc(-c2ccncc2)nc1OCCOc1ncc(Cl)cn1` [Example 164], the figures for the IC50 in test [1] and in test [2] were 10 nM and 1560 nM, respectively.

On to `CSc1cnc(OCCOc2ncnc(NS(=O)(=O)/C=C/c3ccccc3)c2-c2ccc(Cl)cc2)nc1` [Example 51], for which the half-maximal inhibitory concentration (IC50) in test [1] came out at 4.56 nM; in test [2], 173 nM.

Take `COc1ccccc1Oc1c(NS(=O)(=O)/C=C/c2cccs2)nc(-c2ncccn2)nc1OCCOc1ncc(Br)cn1` [Example 157]: the IC50 in test [1] was 21.7 nM; in test [2], 4500 nM.

As to `Cc1ccc(-c2c(NS(=O)(=O)/C=C/c3ccccc3)ncnc2OCCOc2ccc(Br)cc2)cc1` [Example 3, 2-phenyl-ethenesulfonic acid {6-[2-(4-bromo-phenoxy)-ethoxy]-5-p-tolyl-pyrimidin-4-yl}-amide], the IC50 turned out to be 46.3 nM in test [1] and 722 nM in test [2].

As for `Cc1ccc(-c2c(NS(=O)(=O)/C=C/c3ccccc3)nc(C3CC3)nc2OCCOc2ncc(Cl)cn2)cc1` [Example 134], the values for the IC50 in test [1] and in test [2] were 6.3 nM and 4890 nM, respectively.

As to `COc1cnc(OCCOc2nc(C3CC3)nc(NS(=O)(=O)/C=C/c3ccccc3)c2-c2ccc(C)cc2)nc1` [Example 133], the concentration for half-maximal inhibition (IC50) was 8.2 nM in test [1] and 1770 nM in test [2].

For the compound `Cc1ccc(/C=C/S(=O)(=O)Nc2ncnc(OCCOc3ncc(Cl)cn3)c2-c2ccc(Cl)cc2)cc1` [Example 60], the values for the half-inhibitory concentration (IC50) in test [1] and in test [2] were 30 nM and 558 nM, respectively.

For `COc1cnc(OCCOc2nc(-c3ncccn3)nc(NS(=O)(=O)/C=C/c3ccccc3)c2-c2ccc(C)cc2)nc1` [Example 144], the IC50 in test [1] was 10 nM; in test [2], 3060 nM.

Regarding `COc1cnc(OCCOc2nc(-c3ccncc3)nc(NS(=O)(=O)/C(C)=C/c3ccccc3)c2Oc2ccccc2OC)nc1` [Example 177], the half-inhibitory concentration (IC50) worked out at 5.5 nM in test [1] and 363 nM in test [2].

Take `Cc1ccc(-c2c(NS(=O)(=O)/C=C/c3ccccc3)ncnc2OCCOc2ncc(Br)cn2)cc1C` [Example 40]: the IC50 in test [1] turned out to be 6.2 nM; in test [2], 629 nM.

`Cc1ccc(-c2c(NS(=O)(=O)/C=C/c3cccs3)nc(-c3ncccn3)nc2OCCOc2ncc(Br)cn2)cc1` [Example 72]: the 50% inhibitory concentration (IC50) worked out at 9 nM in test [1] and 2380 nM in test [2].

As for `COc1ccccc1Oc1c(NS(=O)(=O)/C=C/c2cccs2)nc(-c2ncccn2)nc1OCCOc1ncccn1` [Example 158], the concentration for half-maximal inhibition (IC50) turned out to be 12.1 nM in test [1] and 1260 nM in test [2].

Take `O=S(=O)(/C=C/c1ccccc1)Nc1ncnc(OCCOc2ncc(F)cn2)c1-c1ccc(Cl)cc1` [Example 50]: the values for the concentration for half-maximal inhibition (IC50) in test [1] and in test [2] were 31 nM and 6890 nM, respectively.

Turning to `Cc1ccc(-c2c(NS(=O)(=O)/C=C/c3ccccc3)ncnc2OCCOc2ccc(Cl)cc2)cc1` [Example 6], the IC50 in test [1] is 82.4 nM; in test [2] it was 1350 nM.

What is called IC50 is the concentration that gives 50% inhibition.

For the origin of these results see US6951856B2, “Arylethene-sulfonamides” (Actelion Pharmaceuticals Ltd., priority 2000, dated 2005).
